Measured values from ChEMBL document CHEMBL4610106, “Identification of the Clinical Development Candidate MRTX849, a Covalent KRASG12C Inhibitor for the Treatment of Cancer” (J Med Chem, 2020).
Converted amounts (≈) assume the structure as drawn.

Assays:
GTPase KRas = GTPase KRas (Homo sapiens, UniProt P01116, G12C)
[1] = Drug metabolism in mouse hepatocytes assessed as parent compound remaining at 10 uM incubated for 2 hrs by LC-MS analysis; assay type: ADME, cell-based, Hepatocyte; settings: read-out: Stability
[2] = Volume of distribution at steady state in beagle dog at 3 mg/kg, iv; assay type: ADME, organism-based, Canis lupus familiaris; settings: in vivo, read-out: Vdss
MIA PaCa-2 [3] = test: Antitumor activity against human MIAPaCa2 cells xenografted in athymic nude-Foxn1nu mouse assessed as induction of tumor regression at 30 mg/kg, po dosed daily via gavage for 16 days; assay type: functional
[4] = Tmax in CD1 mouse at 30 mg/kg, po; assay type: ADME, organism-based; settings: in vivo
[5] = system: GTPase KRas (Homo sapiens), P01116 [G12C]; test: In-vivo target engagement at KRAS G12C mutant in athymic nude-Foxn1nu mouse xenografted with human NCI-H358 cells assessed as KRAS G12C modification level in tumor lysate at 30 mg/kg, po dosed via gavage as single administration measured after 6 hrs by LC-MS analysis relative to control; assay type: functional, organism-based; settings: Neoplasm
[6] = system: GTPase KRas (Homo sapiens), P01116 [G12C]; test: In-vivo target engagement at KRAS G12C mutant in athymic nude-Foxn1nu mouse xenografted with human NCI-H358 cells assessed as KRAS G12C modification level in tumor lysate at 100 mg/kg, po dosed via gavage as single administration measured after 6 hrs by LC-MS analysis relative to contro; assay type: functional, organism-based; settings: Neoplasm
[7] = Half life in CD1 mouse at 3 mg/kg, iv; assay type: ADME, organism-based; settings: in vivo
[8] = Cmax in beagle dog at 10 mg/kg, po; assay type: ADME, organism-based, Canis lupus familiaris; design: dose 10 mg/kg, route oral; settings: in vivo
[9] = Oral bioavailability in CD1 mouse at 30 mg/kg; assay type: ADME, organism-based; settings: in vivo
[10] = Clearance in CD1 mouse at 3 mg/kg, iv; assay type: ADME, organism-based; settings: in vivo
[11] = system: GTPase KRas (Homo sapiens), P01116 [G12C]; test: In-vivo target engagement at KRAS G12C mutant in athymic nude-Foxn1nu mouse xenografted with human NCI-H358 cells assessed as KRAS G12C modification level in tumor lysate at 10 mg/kg, po dosed via gavage as single administration measured after 6 hrs by LC-MS analysis relative to control; assay type: functional, organism-based; settings: Neoplasm
[12] = Half life in beagle dog at 3 mg/kg, iv; assay type: ADME, organism-based, Canis lupus familiaris; settings: in vivo
[13] = Cmax in CD1 mouse at 30 mg/kg, po; assay type: ADME, organism-based; design: dose 30 mg/kg, route oral; settings: in vivo
MIA PaCa-2 [14] = test: Antitumor activity against human MIAPaCa2 cells xenografted in athymic nude-Foxn1nu mouse assessed as induction of tumor regression at 30 mg/kg, po dosed daily via gavage for 16 days followed by drug cessation and measured up to 40 days; assay type: functional
[15] = Clearance in beagle dog at 3 mg/kg, iv; assay type: ADME, organism-based, Canis lupus familiaris; settings: in vivo
[16] = AUC (infinity) in beagle dog at 10 mg/kg, po; assay type: ADME, organism-based, Canis lupus familiaris; design: dose 10 mg/kg, time infinity, route oral; settings: in vivo
[17] = Tmax in beagle dog at 10 mg/kg, po; assay type: ADME, organism-based, Canis lupus familiaris; settings: in vivo
[18] = AUC (infinity) in CD1 mouse at 30 mg/kg, po; assay type: ADME, organism-based; design: dose 30 mg/kg, time infinity, route oral; settings: in vivo
[19] = Volume of distribution at steady state in CD1 mouse at 3 mg/kg, iv; assay type: ADME, organism-based; settings: in vivo, read-out: Vdss
[20] = biological target: Glutathione S-transferase P (Homo sapiens) (UniProt P09211); test: Drug metabolism in human whole blood assessed as GSTP1-1-mediated GSH conjugation; assay type: tissue-based
[21] = Oral bioavailability in beagle dog at 10 mg/kg; assay type: ADME, organism-based, Canis lupus familiaris; settings: in vivo
[22] = Half life in presence of GSH in phosphate buffer at 1 uM at 37 degC by LC-MS/M analysis; assay type: physicochemical; settings: phosphate buffer with GSH
[23] = system: GTPase KRas (Homo sapiens), P01116 [G12C]; test: Inhibition of KRAS G12C mutant in human NCI-H358 cells assessed as reduction in ERK phosphorylation incubated for 3 hrs by in-cell western method
[24] = Apparent permeability in pig LLC-PK1 cells; assay type: ADME, cell-based, Sus scrofa; settings: read-out: permeability
[25] = Hepatic extraction ratio in human liver microsomes; assay type: ADME, Microsome; settings: read-out: ERH
[26] = Hepatic extraction ratio in human hepatocytes at 10 uM incubated for 2 hrs by LC-MS analysis; assay type: ADME, cell-based, Hepatocyte; settings: read-out: ERH
[27] = Protein binding in mouse plasma; assay type: ADME, cell-free; settings: read-out: PPB (converted)
[28] = Protein binding in human plasma; assay type: ADME, cell-free; settings: read-out: PPB (converted)
[29] = Solubility in FaSSIF at pH 6.5; assay type: physicochemical
[30] = Permeability ratio in pig LLC-PK1 cells; assay type: ADME, cell-based, Sus scrofa
[31] = Half life in mouse whole blood at 5 uM by LC-MS/MS analysis; assay type: ADME, tissue-based
[32] = Half life in human whole blood at 5 uM by LC-MS/MS analysis; assay type: ADME, tissue-based
[33] = Half life in dog whole blood at 5 uM by LC-MS/MS analysis; assay type: ADME, tissue-based, Canis lupus familiaris
[34] = Tmax in CD1 mouse at 10 mg/kg, po; assay type: ADME, organism-based; settings: in vivo
[35] = AUC (infinity) in CD1 mouse at 10 mg/kg, po; assay type: ADME, organism-based; design: dose 10 mg/kg, route oral, time infinity; settings: in vivo
[36] = Oral bioavailability in CD1 mouse at 10 mg/kg; assay type: ADME, organism-based; settings: in vivo
[37] = Cmax in CD1 mouse at 10 mg/kg, po; assay type: ADME, organism-based; design: dose 10 mg/kg, route oral; settings: in vivo

Sequence of GTPase KRas (Homo sapiens), P01116 [G12C] (P01116 whole entry G12C): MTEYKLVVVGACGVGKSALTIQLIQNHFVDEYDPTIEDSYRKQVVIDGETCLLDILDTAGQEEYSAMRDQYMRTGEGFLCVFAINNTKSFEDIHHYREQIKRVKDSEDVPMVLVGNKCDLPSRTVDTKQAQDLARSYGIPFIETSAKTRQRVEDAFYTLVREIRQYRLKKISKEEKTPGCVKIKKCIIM
Sequence of GTPase KRas (P01116 whole entry G12C): as above
Sequence of Glutathione S-transferase P (Homo sapiens) (P09211 2-210 limits assumed): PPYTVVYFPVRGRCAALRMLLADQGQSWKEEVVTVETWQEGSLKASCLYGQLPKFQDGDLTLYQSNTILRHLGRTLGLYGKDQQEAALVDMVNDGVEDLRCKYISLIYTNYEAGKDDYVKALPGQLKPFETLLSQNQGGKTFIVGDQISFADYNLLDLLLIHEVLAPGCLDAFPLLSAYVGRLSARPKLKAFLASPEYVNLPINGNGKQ

C=CC(=O)N1CCN(c2nc(OC[C@@H]3CCCN3C)nc3c2CCN(c2cccc4cccc(C(F)(F)F)c24)C3)C[C@@H]1CC#N
IC50 (GTPase KRas): 4 nM

C=CC(=O)N1CCN(c2nc(OC[C@@H]3CCCN3C)nc3c2CCN(c2cccc4cccc(C#N)c24)C3)C[C@@H]1CC#N
IC50 (GTPase KRas): 64 nM

C=CC(=O)N1CCN(c2nc(OC[C@@H]3CCCN3C)nc3c2CCN(c2cc(O)cc4ccccc24)C3)CC1
remaining at 2 h, 10 µM [1]: 4%

C=CC(=O)N1CCN(c2nc(OC[C@@H]3CCCN3C)nc3c2CCN(c2c(C(C)C)ccc4[nH]ncc24)C3)CC1
IC50 (GTPase KRas): 1180 nM

C=CC(=O)N1CCN(c2nc(OC[C@@H]3CCCN3C)nc3c2CCN(c2cccc4cccc(C)c24)C3)C[C@@H]1CC#N
Vd [2]: 6.16 L/kg | Activity (MIA PaCa-2 [3]): 100% | IC50 (GTPase KRas): 1 nM | Tmax [4]: 0.5 h | Activity [5]: 60% | Activity [6]: 80% | half-life [7]: 1.33 h | Cmax [8]: 17.8 ng/mL | bioavailability [9]: 31.1% | clearance [10]: 31.6 mL/min/kg | Activity [11]: 20% | half-life [12]: 0.966 h | Cmax [13]: 1660 ng/mL | Activity (MIA PaCa-2 [14]): 100% | clearance [15]: 151 mL/min/kg | AUC(0-inf) [16]: 39.5 ng·h/mL | Tmax [17]: 1.17 h | AUC(0-inf) [18]: 4910 ng·h/mL | Vd [19]: 1.91 L/kg | Drug metabolism [20]: Metabolite detected | bioavailability [21]: 3.67%

C=CC(=O)N1CCN(c2nc(OC[C@@H]3CCCN3C)nc3c2CCN(c2c(C)ccc4[nH]ncc24)C3)CC1
IC50 (GTPase KRas): 1500 nM

C=CC(=O)N1CCN(c2nc(OC[C@@H]3CCCN3C)nc3c2CCN(c2cccc4ccccc24)C3)C[C@H]1CC#N
IC50 (GTPase KRas): 1020 nM | half-life at 1 µM [22]: 1 h

C=CC(=O)N1CCN(c2nc(OC[C@@H]3CCCN3C)nc3c2CCN(c2cccc4cccc(CC)c24)C3)C[C@@H]1CC#N
IC50 (GTPase KRas): 6 nM

C=CC(=O)N1CCN(c2nc(OC[C@@H]3CCCN3C)nc3c2CCN(c2cccc4ccccc24)C3)C[C@@H]1CC#N
fIC50 [23]: 200 nM | IC50 (GTPase KRas): 10 nM | Papp [24]: 2.2 ×10⁻⁶ cm/s | hepatic extraction ratio [25]: 0.45 | half-life at 1 µM [22]: 4 h | hepatic extraction ratio at 2 h, 10 µM [26]: 0.9 | fraction unbound [27]: 0.05 | fraction unbound [28]: 0.05 | solubility [29]: 800 µg/mL (≈ 1450 µM) | Ratio [30]: 28

C=CC(=O)N1CCN(c2nc(OC[C@@H]3CCCN3C)nc3c2CCN(c2c(C)c(C)cc4[nH]ncc24)C3)CC1
IC50 (GTPase KRas): 254 nM | hepatic extraction ratio [25]: < 0.55 | hepatic extraction ratio at 2 h, 10 µM [26]: < 0.55

C=CC(=O)N1CCN(c2nc(OC[C@@H]3CCCN3C)nc3c2CCN(c2cccc4cccc(Cl)c24)C3)C[C@@H]1CC#N
Vd [2]: 7.91 L/kg | Activity (MIA PaCa-2 [3]): 100% | Tmax [4]: 0.25 h | Activity [5]: 89% | Activity [6]: > 90% | half-life at 5 µM [31]: 5 h | half-life [7]: 0.496 h | Cmax [8]: 16.3 ng/mL | bioavailability [9]: 16.9% | half-life at 5 µM [32]: 14 h | clearance [10]: 37.3 mL/min/kg | Activity [11]: 70% | half-life at 5 µM [33]: 2 h | half-life [12]: 0.826 h | Cmax [13]: 2460 ng/mL | Activity (MIA PaCa-2 [14]): 100% | clearance [15]: 225 mL/min/kg | AUC(0-inf) [16]: 31.9 ng·h/mL | Tmax [17]: 0.833 h | AUC(0-inf) [18]: 2270 ng·h/mL | Vd [19]: 0.867 L/kg | Drug metabolism [20]: Metabolite detected | bioavailability [21]: 4.12%

C=CC(=O)N1CCN(c2nc(OC[C@@H]3CCCN3C)nc3c2CCN(c2c(CC)ccc4[nH]ncc24)C3)CC1
IC50 (GTPase KRas): 1080 nM

C=C(OC)C(=O)N1CCN(c2nc(OC[C@@H]3CCCN3C)nc3c2CCN(c2cccc4cccc(Cl)c24)C3)C[C@@H]1CC#N
IC50 (GTPase KRas): > 5000 nM | half-life at 5 µM [31]: > 50 h | half-life at 5 µM [32]: 40 h | half-life at 5 µM [33]: > 50 h

C=CC(=O)N1CCN(c2nc(OC[C@@H]3CCCN3C)nc3c2CCN(c2cccc4ccccc24)C3)CC1CC#N (stereo partly specified)
IC50 (GTPase KRas): 14 nM

COC/C=C/C(=O)N1CCN(c2nc(OC[C@@H]3CCCN3C)nc3c2CCN(c2cccc4cccc(Cl)c24)C3)C[C@@H]1CC#N
IC50 (GTPase KRas): 9 nM | half-life at 5 µM [31]: 11 h | half-life at 5 µM [32]: > 50 h | half-life at 5 µM [33]: 22 h

C=CC(=O)N1CCN(c2nc(OC[C@@H]3CCCN3C)nc3c2CCN(c2cccc4cccc(OC)c24)C3)C[C@@H]1CC#N
IC50 (GTPase KRas): 22 nM

C=CC(=O)N1CCN(c2nc(OC[C@@H]3CCCN3C)nc3c2CCN(c2cccc4ccccc24)C3)C(CO)C1 (stereo partly specified)
IC50 (GTPase KRas): 4530 nM

C=CC(=O)N1CCN(c2nc(OC[C@@H]3CCCN3C)nc3c2CCN(c2cccc4ccccc24)C3)CC1
Tmax [34]: 0.5 h | IC50 (GTPase KRas): 4400 nM | half-life [7]: 0.908 h | half-life at 1 µM [22]: 17 h | AUC [35]: 302 ng·h/mL | Vd [19]: 0.996 L/kg | F [36]: 13.9% | Cmax [37]: 131 ng/mL

C=CC(=O)N1CCN(c2nc(OC[C@@H]3CCCN3C)nc3c2CCN(c2cccc4ccccc24)C3)C(CC#N)C1 (stereo partly specified)
IC50 (GTPase KRas): 3320 nM

C=CC(=O)N1CCN(c2nc(OC[C@@H]3CCCN3C)nc3c2CCN(c2cccc4ccccc24)C3)C(CCO)C1 (stereo partly specified)
IC50 (GTPase KRas): 4840 nM

C=CC(=O)N1CCN(c2nc(OC[C@@H]3CCCN3C)nc3c2CCN(c2cccc4ccccc24)C3)CC1CO (stereo partly specified)
IC50 (GTPase KRas): 4630 nM

C=CC(=O)N1CCN(c2nc(OC[C@@H]3CCCN3C)nc3c2CCN(c2cccc4ccccc24)C3)CC1CCO (stereo partly specified)
IC50 (GTPase KRas): > 5000 nM

CN1CCC[C@H]1COc1nc2c(c(N3CCN(C(=O)/C=C/CF)[C@@H](CC#N)C3)n1)CCN(c1cccc3cccc(Cl)c13)C2
IC50 (GTPase KRas): 3 nM | half-life at 5 µM [31]: 11 h | half-life at 5 µM [32]: > 50 h | half-life at 5 µM [33]: 9 h

C=CC(=O)N1CCN(c2nc(OC[C@@H]3CCCN3C)nc3c2CCN(c2c(C(F)(F)F)ccc4[nH]ncc24)C3)CC1
IC50 (GTPase KRas): 351 nM | hepatic extraction ratio [25]: < 0.55 | hepatic extraction ratio at 2 h, 10 µM [26]: < 0.55
